{"source": "patent US20130130317A1", "about": "“METHOD FOR PRODUCING SUBSTANCE” (KYOWA HAKKO KIRIN CO., LTD, priority 2010, published 2013)", "key": {"[1]": {"test": "Precipitation in media for cell culture on storage", "type": "physicochemical", "conditions": "5.0 mmol/L in medium, stored at 4° C., after 3 days; for precipitation in the medium for cell culture: 20° C. or room temperature", "experimental": "The following media for cell culture were prepared to compare differences in precipitation therebetween.\nIn 700 mL of water, 31.6 g of AGT Efficient Feed A (manufactured by Invitrogen, Catalog No. AG090231P7), 0.50 mL of polyamine solution (manufactured by Invitrogen, Catalog No. AG090232P8), 27.2 g of AGT Efficient Feed B (manufactured by Invitrogen, Catalog No. AG090230P7), 30.0 g of Hydrolysate (manufactured by DMV, Catalog No. P42474), 70.0 g of glucose (manufactured by Wako Pure Chemical Industries, Catalog No. 041-00595), and 5.0 g of L-(+)-glutamine (manufactured by Wako Pure Chemical Industries, Catalog No. 078-00525) or 7.4 g of L-alanyl-L-glutamine (manufactured by Kyowa Hakko Bio) were mixed.\nAfter stirring for approximately 30 minutes, 7.0 mL of 5 mol/L HCl aqueous solution (manufactured by Wako Pure Chemical Industries, Catalog No. 081-05435) was added, followed by further stirring for approximately 20 minutes and pH was adjusted to 6.5. Thereafter, 50 mL of an alkaline solution containing 0.5 mol/L of NaOH (manufactured by Junsei Chemical, Catalog No. 39155-0301), 100 mmol/L of L-tyrosine disodium salt (manufactured by Sigma, Catalog No. T1145-100G), and 100 mmol/L of L-cystine dihydrochloride (manufactured by Wako Pure Chemical Industries, Catalog No. 034-05322) was added to the prepared aqueous solution of pH 6.5.\nA volume of the aqueous solution was adjusted to 1 L with water, followed by stirring for approximately 20 minutes so as to prepare a medium for cell culture. In the medium for cell culture, L-tyrosine disodium salt and L-cystine dihydrochloride were substituted with the same concentration (5.0 mmol/L) of L-alanyl-L-tyrosine (manufactured by Kyowa Hakko Bio) and bis-L-alanyl-L-cysteine (manufactured by Kyowa Hakko Bio) to prepare media for cell culture, respectively. The prepared media for cell culture were stored under three conditions of at 4° C. (refrigerator, manufactured by Hoshizaki), 20° C. (e-Cooling Bucket, manufactured by Taitec), or room temperature."}, "[2]": {"test_system": "antibody X-expressing CHO cells", "test": "Fed-batch culture of CHO cells: number of living cells and survival rate", "type": "cell-based, Chinese hamster", "conditions": "13 days of culture", "experimental": "The following feed media for cell culture were prepared, and fed-batch culture was carried out using CHO cells for comparison.\n(§1) The feed medium was composed of 31.6 g/L of AGT Efficient Feed A (manufactured by Invitrogen, Catalog No. AG090231P7), 0.50 ml/L of polyamine solution (manufactured by Invitrogen, Catalog No. AG090232P8), 27.2 g/L of AGT Efficient Feed B (manufactured by Invitrogen, Catalog No. AG090230P7), 5.0 g/L of L-(+)-glutamine (manufactured by Wako Pure Chemical Industries, Catalog No. 078-00525), 30.0 g/L of hydrolysates (manufactured by DMV, Catalog No. P42474), 70.0 g/L of glucose (manufactured by Wako Pure Chemical Industries, Catalog No. 041-00595), 5.0 mmol/L of L-alanyl-L-tyrosine (Kyowa Hakko Bio), and 5.0 mmol/L, 10 mmol/L or 16 mmol/L of bis-L-alanyl-L-cysteine (manufactured by Kyowa Hakko Bio), and prepared in the same manner as in Example 1.\n(§2) In the culture using antibody X-expressing CHO cells, 4.0 mmol/L of glutamine (manufactured by Invitrogen, Catalog No. 25030)-containing EX-CELL325 (manufactured by SAFC, Catalog No. 14340C-1000mL) was used as a main culture medium. The feed medium was added to perform fed-batch culture."}, "[3]": {"test_system": "antibody X-expressing CHO cells", "test": "Antibody titer in fed-batch culture of CHO cells", "type": "cell-based, Chinese hamster", "conditions": "13 days of culture", "experimental": "as §1, §2\nIn order to examine antibody production, antibody titer was measured at 13 days of culture in the fed-batch culture of CHO cells having an ability to produce the antibody of Example 2. In the feed medium, the […] 0.75 g/L at 5.0 mmol/L, 0.79 g/L at 10 mmol/L, and 0.78 g/L at 16 mmol/L."}, "[4]": {"conditions": "cited from earlier work"}, "[5]": {"conditions": "H2O, 20° C.; cited from earlier work"}}, "note": "Peptide text beside a SMILES is read from it."}
{"compound": "C[C@H](N)C(=O)N[C@@H](Cc1ccc(O)cc1)C(=O)O", "note": "[L-alanyl-L-tyrosine] (H-Ala-Tyr-OH)", "values": [{"measurement": "precipitation in the medium for cell culture", "setting": "[1]", "result": "no precipitation"}]}
{"compound": "Cl.Cl.N[C@@H](CSSC[C@H](N)C(=O)O)C(=O)O", "note": "[L-cystine dihydrochloride]", "values": [{"measurement": "precipitation in the medium for cell culture", "setting": "[1]", "result": "precipitations were observed"}, {"measurement": "precipitation in the medium, low temperature compared with other storage conditions", "setting": "[1]", "result": "more precipitation was observed"}]}
{"compound": "C[C@H](N)C(=O)N(C(=O)[C@H](C)N)[C@@H](CS)C(=O)O", "note": "[bis-L-alanyl-L-cysteine]", "values": [{"measurement": "precipitation in the medium for cell culture", "setting": "[1]", "result": "no precipitation"}, {"measurement": "Number of living cells", "setting": "[2]; 5 mmol/L in feed medium", "result": "28.6 10^5 cells/mL"}, {"measurement": "Survival rate", "setting": "[2]; 5 mmol/L in feed medium", "result": 55.0, "unit": "%"}, {"measurement": "Number of living cells", "setting": "[2]; 10 mmol/L in feed medium", "result": "44.1 10^5 cells/mL"}, {"measurement": "Survival rate", "setting": "[2]; 10 mmol/L in feed medium", "result": 78.7, "unit": "%"}, {"measurement": "Number of living cells", "setting": "[2]; 16 mmol/L in feed medium", "result": "58.1 10^5 cells/mL"}, {"measurement": "Survival rate", "setting": "[2]; 16 mmol/L in feed medium", "result": 86.6, "unit": "%"}, {"measurement": "antibody titer", "setting": "[3]; 5.0 mmol/L in feed medium", "result": 0.75, "unit": "g/L"}, {"measurement": "antibody titer", "setting": "[3]; 10 mmol/L in feed medium", "result": 0.79, "unit": "g/L"}, {"measurement": "antibody titer", "setting": "[3]; 16 mmol/L in feed medium", "result": 0.78, "unit": "g/L"}]}
{"compound": "Cl.N[C@@H](CS)C(=O)O", "note": "[cysteine hydrochloride]", "values": [{"measurement": "stability in an aqueous solution", "setting": "[4]", "result": "low stability"}]}
{"compound": "N[C@@H](CSSC[C@H](N)C(=O)O)C(=O)O", "note": "[cystine]", "values": [{"measurement": "solubility", "setting": "[5]", "result": 100, "unit": "µg/mL"}]}
{"compound": "L-tyrosine disodium salt", "values": [{"measurement": "precipitation in the medium for cell culture", "setting": "[1]", "result": "precipitations were observed"}, {"measurement": "precipitation in the medium, low temperature compared with other storage conditions", "setting": "[1]", "result": "more precipitation was observed"}]}
